Assay results reported in US12139477B2, “Compounds, salts thereof and methods for treatment of diseases” (ACADIA PHARMACEUTICALS INC., priority 2017, dated 2024).

Key:
hERG channel = molecular target: T1, hERG channel (Homo sapiens, UniProt Q12809); assay: hERG assay, whole cell recordings in CHO cells (AVIVA); format: cell-based; settings: CHO cells stably expressing hERG, pH 7.4
T1 construct: host or cells: CHO cells, stably transfected
Experimental: The most common mechanism for these adverse events is the inhibition of one or more cardiac potassium channels, in particular hERG. This current is important for cardiac myocyte repolarization and is a common target for drugs that prolong the QT interval. Test articles in this study were therefore characterized to determine their ability to inhibit the hERG channel. Ion channel activity was measured at AVIVA Biosciences Corporation (San Diego, CA), using a stably transfected Chinese Hamster Ovary (CHO) cell line expressing the hERG mRNA.
Cells: AVIVA's CHO cell line, which stably expresses hERG channels, was used for the study. Cells were cultured in DMEM/F12 containing 10% FBS, 1% penicillin/streptomycin and 500 μg/ml G418. Before testing, cells were harvested using Accumax (Innovative Cell Technologies).
Solutions: For electrophysiological recordings, the following solutions were used: External Solution: 2 mM CaCl2); 2 mM MgCl2; 4 mM KCl; 150 mM NaCl; 10 mM Glucose; 10 mM HEPES; 305-315 mOsm; pH 7.4 (adjusted with 5M NaOH); Internal Solution: 140 mM KCl; 10 mM MgCl2; 6 mM EGTA; 5 mM HEPES-Na; 5 mM ATP-Mg; 295-305 mOsm; pH 7.25 (adjusted with 1M KOH).
Electrophysiology: Whole cell recordings were performed using PX 7000A (Axon Instruments) with AVIVA's SealChip™ technology. Cells were voltage clamped at a holding potential of −80 mV. The hERG current was then activated by a depolarizing step to −50 mV for 300 ms. This first step at −50 mV was used as a baseline for measuring peak amplitude of the tail current. Next, a voltage step to +20 mV was applied for 5 s to activate the channels. Finally, a step back to −50 mV for 5 s removed activation and the deactivating tail current was recorded.
Test Article Handling and Dilutions: All test articles were prepared from 10 mM DMSO stock solutions provided by Sponsor. Solutions were mixed by sonication for 20 min, followed by vigorous vortexing. Prior to testing, compounds were diluted to test concentrations in glass vials using External Solution. Dilutions were prepared no longer than 20 min prior to use.
Electrophysiology Procedures: After achieving whole cell configuration, cells were monitored for 90 s to assess stability and then washed with External Solution for 66 s. The voltage protocol previously described was then applied to the cells every 12 s throughout the procedure. Only stable cells with recording parameters above threshold (see Quality Control section) were allowed to enter the drug addition procedure. External solution containing 0.1% DMSO (vehicle) was applied to the cells to establish a baseline. […] Test article solutions were added to cells in 4 separate additions. Cells were kept in test solution until effect of the test article reached steady state, to a maximum of 12 min. Next, 1 μM cisapride (positive control) was added. Finally, washout with External Solution was performed until the recovery current reached steady state.
Data Analysis: Data analysis was performed using DataXpress (Axon Instruments), Clampfit (Axon Instruments) and Origin (OriginLab Corporation) software.

5HT2A = 5HT2A (Homo sapiens, UniProt P28223); assay: Receptor Selection and Amplification (R-SAT) functional assay; format: cell-based; design: expressed in transfected cells; host or cells: NIH3T3 cells, pSI mammalian expression vector; settings: NIH3T3 cells; Ki from IC50 by Cheng and Prussoff; read-out: 5-HT2a (pKi) (R-SAT) (converted)
Chain of 5HT2A (P28223 whole entry): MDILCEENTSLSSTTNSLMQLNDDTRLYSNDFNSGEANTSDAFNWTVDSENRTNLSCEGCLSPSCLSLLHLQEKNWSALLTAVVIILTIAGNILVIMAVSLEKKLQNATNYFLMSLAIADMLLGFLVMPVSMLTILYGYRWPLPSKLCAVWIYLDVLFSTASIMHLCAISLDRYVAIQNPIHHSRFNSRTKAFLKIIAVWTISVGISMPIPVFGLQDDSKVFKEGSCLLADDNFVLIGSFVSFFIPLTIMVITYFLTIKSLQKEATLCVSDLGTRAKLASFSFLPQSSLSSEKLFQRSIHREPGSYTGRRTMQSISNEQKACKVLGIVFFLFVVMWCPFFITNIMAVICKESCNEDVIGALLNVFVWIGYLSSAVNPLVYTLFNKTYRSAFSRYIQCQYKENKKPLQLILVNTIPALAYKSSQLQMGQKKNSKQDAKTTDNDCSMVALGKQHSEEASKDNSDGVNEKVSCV
Text: Receptor Selection and Amplification (R-SAT) Assays. […] The IC50 determined in the RSAT assay was converted into a Ki value using the method of Cheng and Prussoff, Biochem Pharmacol., 1973 Dec. 1; 22(23):3099-108. pKi is the negative of the log(Ki).

T1 sequence (Q12809 whole entry): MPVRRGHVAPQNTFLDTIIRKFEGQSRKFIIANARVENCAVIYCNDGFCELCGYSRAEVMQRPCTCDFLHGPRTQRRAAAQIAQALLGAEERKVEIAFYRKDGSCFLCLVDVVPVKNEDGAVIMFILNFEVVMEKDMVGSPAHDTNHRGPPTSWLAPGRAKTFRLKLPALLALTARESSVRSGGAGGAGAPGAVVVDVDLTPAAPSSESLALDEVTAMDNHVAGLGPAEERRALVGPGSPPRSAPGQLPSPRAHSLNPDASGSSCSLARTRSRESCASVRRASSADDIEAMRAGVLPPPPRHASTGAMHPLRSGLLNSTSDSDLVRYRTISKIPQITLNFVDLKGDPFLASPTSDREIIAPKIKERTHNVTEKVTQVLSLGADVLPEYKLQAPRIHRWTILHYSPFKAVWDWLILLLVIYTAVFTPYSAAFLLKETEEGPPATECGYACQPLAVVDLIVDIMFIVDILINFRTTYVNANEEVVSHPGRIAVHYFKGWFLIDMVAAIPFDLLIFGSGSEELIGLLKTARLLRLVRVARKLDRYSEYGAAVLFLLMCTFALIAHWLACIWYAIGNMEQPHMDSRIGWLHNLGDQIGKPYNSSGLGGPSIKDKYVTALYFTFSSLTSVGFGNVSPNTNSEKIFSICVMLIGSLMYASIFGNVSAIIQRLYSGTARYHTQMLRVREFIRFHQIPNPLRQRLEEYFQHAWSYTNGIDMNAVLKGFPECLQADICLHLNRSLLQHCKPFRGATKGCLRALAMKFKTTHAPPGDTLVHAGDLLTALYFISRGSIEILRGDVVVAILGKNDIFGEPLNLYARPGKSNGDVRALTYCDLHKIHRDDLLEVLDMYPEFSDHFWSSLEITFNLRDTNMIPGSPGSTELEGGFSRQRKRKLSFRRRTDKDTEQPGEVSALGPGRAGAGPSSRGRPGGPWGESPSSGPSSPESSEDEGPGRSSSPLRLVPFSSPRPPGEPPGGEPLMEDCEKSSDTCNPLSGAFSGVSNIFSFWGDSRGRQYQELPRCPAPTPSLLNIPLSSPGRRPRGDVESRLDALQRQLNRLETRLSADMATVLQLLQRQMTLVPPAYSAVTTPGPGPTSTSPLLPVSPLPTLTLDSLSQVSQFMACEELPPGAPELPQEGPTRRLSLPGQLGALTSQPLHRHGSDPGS

| SMILES | Ki (5HT2A) [nM] | inhibition at 1 µM (hERG channel) [%] |
| --- | --- | --- |
| CC(C)COc1ccc(CNC(=O)N(Cc2ccc(F)cc2F)C2CCNCC2)cc1 [Example 4, 1-[(2,4-difluorophenyl)methyl]-3-{[4-(2-methylpropoxy)phenyl]methyl}-1-(piperidin-4-yl)urea] | 2.51 | 11 |
| CN1CCC(N(Cc2ccc(F)cc2F)C(=O)NCc2ccc3c(c2)CC(C)(C)O3)CC1 [Example 8, 1-[(2,4-difluorophenyl)methyl]-3-[(2,2-dimethyl-2,3-dihydro-1-benzofuran-5-yl)methyl]-1-(1-methylpiperidin-4-yl)urea] | 0.794 | 22 |
| CN1CCC(N(Cc2ccc(F)cc2F)C(=O)NCc2ccc3c(c2)C(C)(C)CO3)CC1 [Example 9, 1-[(2,4-difluorophenyl)methyl]-3-[(3,3-dimethyl-2,3-dihydro-1-benzofuran-5-yl)methyl]-1-(1-methylpiperidin-4-yl)urea] | 7.94 | 63 |
| CN1CCC(N(Cc2ccc(F)cc2F)C(=O)NCc2ccc3c(c2)CCO3)CC1 [Example 10, 1-[(2,4-difluorophenyl)methyl]-3-[(2,3-dihydro-1-benzofuran-5-yl)methyl]-1-(1-methylpiperidin-4-yl)urea] | 1 | 10 |
| CN1CCC(N(Cc2ccc(F)cc2F)C(=O)NCc2ccc(OCCF)cc2)CC1 [Example 15, 1-[(2,4-difluorophenyl)methyl]-3-{[4-(2-fluoroethoxy)phenyl]methyl}-1-(1-methylpiperidin-4-yl)urea] | 3.16 | 19 |
| CN1CCC(N(Cc2ccc(F)cc2F)C(=O)NCc2ccc(OC(C)(C)C)cc2)CC1 [Example 18, 3-{[4-(tert-butoxy)phenyl]methyl}-1-[(2,4-difluorophenyl)methyl]-1-(1-methylpiperidin-4-yl)urea] | 0.316 | 17 |
| COc1cc(F)c(F)cc1CN(C(=O)NCc1ccc(OC(C)C)cc1)C1CCN(C)CC1 [Example 138, 1-[(4,5-difluoro-2-methoxyphenyl)methyl]-1-(1-methylpiperidin-4-yl)-3-{[4-(propan-2-yloxy)phenyl]methyl}urea; Trifluoroacetic Acid] |  | 13 |

More lines, main results first:

| Ki (5HT2A) [nM] | SMILES | inhibition at 1 µM (hERG channel) [%] |
| --- | --- | --- |
| 2 | CC(C)COc1ccc(CNC(=O)N(Cc2ccc(F)cc2)C2CCN(C)CC2)cc1F [Example 6, 3-{[3-fluoro-4-(2-methylpropoxy)phenyl]methyl}-1-[(4-fluorophenyl)methyl]-1-(1-methylpiperidin-4-yl)urea] | 70 |
| 2 | CC(C)COc1ccc(CNC(=O)N(Cc2ccc(F)cc2)C2CCN(C)CC2)c(F)c1 [Example 7, 3-{[2-fluoro-4-(2-methylpropoxy)phenyl]methyl}-1-[(4-fluorophenyl)methyl]-1-(1-methylpiperidin-4-yl)urea] | 87 |
| 0.0794 | CC(C)COc1ccc(CNC(=O)N(Cc2ccc(F)cc2O)C2CCN(C)CC2)cc1 [Example 13, 1-[(4-fluoro-2-hydroxyphenyl)methyl]-1-(1-methylpiperidin-4-yl)-3-{[4-(2-methylpropoxy)phenyl]methyl}urea] | 34 |
| 1.58 | CC(C)COc1ccc(CNC(=O)N(Cc2ccc(F)cc2)C2CCN(C)CC2)c(O)c1 [Example 14, 1-[(4-fluorophenyl)methyl]-3-{[2-hydroxy-4-(2-methylpropoxy)phenyl]methyl}-1-(1-methylpiperidin-4-yl)urea] | 77 |
| 2 | CCOc1ccc(CNC(=O)N(Cc2ccc(F)cc2F)C2CCN(C)CC2)cc1 [Example 16, 1-[(2,4-difluorophenyl)methyl]-3-[(4-ethoxyphenyl)methyl]-1-(1-methylpiperidin-4-yl)urea] | 29 |
| 1.58 | C=CCOc1ccc(CNC(=O)N(Cc2ccc(F)cc2F)C2CCN(C)CC2)cc1 [Example 19, 3-(4-(allyloxy)benzyl)-1-(2,4-difluorobenzyl)-1-(1-methylpiperidin-4-yl)urea] | 33 |
